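Results reflect a 48-hour exposure of cells in 96-well plates to compound at five concentrations. TGI is the concentration that stops growth completely.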
Assays:
Experiment in all cases: DTP human tumour cell line panel, 48 h
786-0 renal = test system: 786-0 renal
A498 renal = test system: A498 renal
A549 NSCLC = test system: A549 NSCLC
ACHN renal = test system: ACHN renal
BT-549 breast = test system: BT-549 breast
CCRF-CEM leukemia = test system: CCRF-CEM leukemia
COLO 205 colon = test system: COLO 205 colon
DU-145 prostate = test system: DU-145 prostate
HCC-2998 colon = test system: HCC-2998 colon
HCT-116 colon = test system: HCT-116 colon
HCT-15 colon = test system: HCT-15 colon
HL-60(TB) leukemia = test system: HL-60(TB) leukemia
HOP-62 NSCLC = test system: HOP-62 NSCLC
HOP-92 NSCLC = test system: HOP-92 NSCLC
HS 578T breast = test system: HS 578T breast
HT29 colon = test system: HT29 colon
IGROV1 ovarian = test system: IGROV1 ovarian
K-562 leukemia = test system: K-562 leukemia
KM12 colon = test system: KM12 colon
LOX IMVI melanoma = test system: LOX IMVI melanoma
M14 melanoma = test system: M14 melanoma
MALME-3M melanoma = test system: MALME-3M melanoma
MCF7 breast = test system: MCF7 breast
MDA-MB-231 breast = test system: MDA-MB-231 breast
MDA-MB-435 = test system: MDA-MB-435
MDA-N = test system: MDA-N
MOLT-4 leukemia = test system: MOLT-4 leukemia
NCI-H226 lung = test system: NCI-H226 lung
NCI-H23 lung = test system: NCI-H23 lung
NCI-H460 lung = test system: NCI-H460 lung
NCI-H522 lung = test system: NCI-H522 lung
NCI/ADR-RES ovarian = test system: NCI/ADR-RES ovarian
OVCAR-3 ovarian = test system: OVCAR-3 ovarian
OVCAR-5 ovarian = test system: OVCAR-5 ovarian
OVCAR-8 ovarian = test system: OVCAR-8 ovarian
PC-3 prostate = test system: PC-3 prostate
RPMI-8226 leukemia = test system: RPMI-8226 leukemia
RXF 393 renal = test system: RXF 393 renal
SF-268 CNS = test system: SF-268 CNS
SF-295 CNS = test system: SF-295 CNS
SF-539 CNS = test system: SF-539 CNS
SK-MEL-2 melanoma = test system: SK-MEL-2 melanoma
SK-MEL-28 melanoma = test system: SK-MEL-28 melanoma
SK-MEL-5 melanoma = test system: SK-MEL-5 melanoma
SN12C renal = test system: SN12C renal
SNB-19 CNS = test system: SNB-19 CNS
SNB-75 CNS = test system: SNB-75 CNS
SR leukemia = test system: SR leukemia
SW-620 colon = test system: SW-620 colon
T-47D breast = test system: T-47D breast
TK-10 renal = test system: TK-10 renal
U251 CNS = test system: U251 CNS
UACC-257 melanoma = test system: UACC-257 melanoma
UACC-62 melanoma = test system: UACC-62 melanoma
UO-31 renal = test system: UO-31 renal
CAKI-1 renal = test system: CAKI-1 renal
EKVX NSCLC = test system: EKVX NSCLC
OVCAR-4 ovarian = test system: OVCAR-4 ovarian
SK-OV-3 ovarian = test system: SK-OV-3 ovarian

Measured: TGI

COc1ccc(C2C(C#N)=C(S)N(C3OC(CO)C(O)C(O)C3O)C(c3ccccc3)=C2C(C)=O)cc1 (centres undefined)
60.7 µM: SK-MEL-5 melanoma
88.9 µM: NCI-H522 lung
69.9 µM: T-47D breast
97 µM: SNB-75 CNS
not listed: CAKI-1 renal | EKVX NSCLC | OVCAR-4 ovarian | SK-OV-3 ovarian
> 100 µM: all other assays above

O=c1oc2ccc(Cl)cc2cc1-c1cn2cc(Cl)ccc2n1
> 85.9 µM: NCI/ADR-RES ovarian
11.2 µM: NCI-H522 lung
2.79 µM: MDA-N
> 87.8 µM: A549 NSCLC
92.5 µM: MALME-3M melanoma
15 µM: UACC-62 melanoma
> 68.5 µM: HS 578T breast
> 58.8 µM: HT29 colon
1.18 µM: MDA-MB-435
> 58.6 µM: KM12 colon
> 27.1 µM: SNB-19 CNS
6.37 µM: MCF7 breast
not listed: A498 renal
> 100 µM: all other assays above

O=C1NC2(CN3CCC2CC3)C(=O)N1CN(Cc1ccccc1)c1ccccc1 (centres undefined)
63.2 µM: SR leukemia
44.7 µM: HL-60(TB) leukemia
not listed: CCRF-CEM leukemia | K-562 leukemia | MALME-3M melanoma
> 100 µM: all other assays above

Source: PubChem BioAssay (NCI)
